{"source": "patent US20240358693A1", "about": "“METHODS OF TREATING PAIN” (Aisa Pharma, Inc., priority 2023, published 2024)", "test_system": "participants with SSc-RP", "test": "Average duration of weekly RP attacks (minutes)", "assay_type": "in vivo, human", "details": "Tadalafil 5 mg", "excerpt": "The absolute change in average duration of weekly RP attacks from baseline to the end of each dosing period was and will be a secondary outcome variable. The sponsor-developed participant-informed diary was and will be used to record data. Average duration of weekly RP attacks is defined as the total duration of RP attacks divided by total number of RP attacks within the last 7 days of each dosing period. Total duration of RP attacks during the last 7 days of screening period divided by the total number of RP attacks will be used as baseline for the analysis of all periods. The variable will be calculated similar to frequency data as before.", "key": {"[1]": {"details": "n=1, Excluding Outliers, ITT Part A"}, "[2]": {"details": "Baseline RCS subgroup 2 (unnamed), ITT Part A"}, "[3]": {"details": "Excluding Outliers, Baseline RCS subgroup 2 (unnamed), ITT Part A"}, "[4]": {"details": "Excluding Outliers, ITT Population - Part A"}, "[5]": {"details": "Excluding Outliers, by Baseline RCS, subgroup 2, ITT Population - Part A"}, "[6]": {"details": "by Baseline RCS, subgroup 2, ITT Population - Part A"}}}
{"smiles": "CN1CC(=O)N2[C@H](c3ccc4c(c3)OCO4)c3[nH]c4ccccc4c3C[C@@H]2C1=O", "note": "[Tadalafil, tadalafil]", "values": [{"measurement": "Average Duration of Weekly Symptomatic RP Attacks, Change from Baseline, Mean", "setting": "[1]", "value": -4.58, "unit": "min"}, {"measurement": "Average Duration of Weekly Symptomatic RP Attacks, Change from Baseline, Median", "setting": "[1]", "value": -4.58, "unit": "min"}, {"measurement": "Average Duration of Weekly Symptomatic RP Attacks, Mean", "setting": "[1]", "value": 6.00, "unit": "min"}, {"measurement": "Average Duration of Weekly Symptomatic RP Attacks, Median", "setting": "[1]", "value": 6.00, "unit": "min"}, {"measurement": "Average Duration of Weekly Symptomatic RP Attacks, Percent Change from Baseline, Mean", "setting": "[1]", "value": "−43.31", "unit": "%"}, {"measurement": "Average Duration of Weekly Symptomatic RP Attacks, Percent Change from Baseline, Median", "setting": "[1]", "value": "−43.31", "unit": "%"}, {"measurement": "Average Duration of Weekly Symptomatic RP Attacks, Change from Baseline, Mean", "setting": "n=2, ITT Part A", "value": 140.74, "unit": "min"}, {"measurement": "Average Duration of Weekly Symptomatic RP Attacks, Change from Baseline, Median", "setting": "n=2, ITT Part A", "value": 140.74, "unit": "min"}, {"measurement": "Average Duration of Weekly Symptomatic RP Attacks, Mean", "setting": "n=2, ITT Part A", "value": 412.29, "unit": "min"}, {"measurement": "Average Duration of Weekly Symptomatic RP Attacks, Median", "setting": "n=2, ITT Part A", "value": 412.29, "unit": "min"}, {"measurement": "Average Duration of Weekly Symptomatic RP Attacks, Percent Change from Baseline, Mean", "setting": "n=2, ITT Part A", "value": 5.21, "unit": "%"}, {"measurement": "Average Duration of Weekly Symptomatic RP Attacks, Percent Change from Baseline, Median", "setting": "n=2, ITT Part A", "value": 5.21, "unit": "%"}, {"measurement": "Average Duration of Weekly Symptomatic RP Attacks, Change from Baseline, Mean", "setting": "[2]", "value": 140.74, "unit": "min"}, {"measurement": "Average Duration of Weekly Symptomatic RP Attacks, Change from Baseline, Median", "setting": "[2]", "value": 140.74, "unit": "min"}, {"measurement": "Average Duration of Weekly Symptomatic RP Attacks, Mean", "setting": "[2]", "value": 412.29, "unit": "min"}, {"measurement": "Average Duration of Weekly Symptomatic RP Attacks, Median", "setting": "[2]", "value": 412.29, "unit": "min"}, {"measurement": "Average Duration of Weekly Symptomatic RP Attacks, Percent Change from Baseline, Mean", "setting": "[2]", "value": 5.21, "unit": "%"}, {"measurement": "Average Duration of Weekly Symptomatic RP Attacks, Percent Change from Baseline, Median", "setting": "[2]", "value": 5.21, "unit": "%"}, {"measurement": "Average Duration of Weekly Symptomatic RP Attacks, Change from Baseline, Mean", "setting": "[3]", "value": -4.58, "unit": "min"}, {"measurement": "Average Duration of Weekly Symptomatic RP Attacks, Change from Baseline, Median", "setting": "[3]", "value": -4.58, "unit": "min"}, {"measurement": "Average Duration of Weekly Symptomatic RP Attacks, Mean", "setting": "[3]", "value": 6.00, "unit": "min"}, {"measurement": "Average Duration of Weekly Symptomatic RP Attacks, Median", "setting": "[3]", "value": 6.00, "unit": "min"}, {"measurement": "Average Duration of Weekly Symptomatic RP Attacks, Percent Change from Baseline, Mean", "setting": "[3]", "value": "−43.31", "unit": "%"}, {"measurement": "Average Duration of Weekly Symptomatic RP Attacks, Percent Change from Baseline, Median", "setting": "[3]", "value": "−43.31", "unit": "%"}, {"measurement": "Average Duration of Weekly RP Attacks (All Attacks) Change from Baseline, Mean", "setting": "[4]", "value": -4.98, "unit": "min"}, {"measurement": "Average Duration of Weekly RP Attacks (All Attacks) Change from Baseline, Median", "setting": "[4]", "value": -4.98, "unit": "min"}, {"measurement": "Average Duration of Weekly RP Attacks (All Attacks) Percent Change from Baseline, Mean", "setting": "[4]", "value": "−45.55", "unit": "%"}, {"measurement": "Average Duration of Weekly RP Attacks (All Attacks) Percent Change from Baseline, Median", "setting": "[4]", "value": "−45.55", "unit": "%"}, {"measurement": "Average Duration of Weekly RP Attacks (All Attacks), Mean", "setting": "[4]", "value": 5.95, "unit": "min"}, {"measurement": "Average Duration of Weekly RP Attacks (All Attacks), Median", "setting": "[4]", "value": 5.95, "unit": "min"}, {"measurement": "Average Duration of Weekly RP Attacks (All Attacks) Change from Baseline, Mean", "setting": "[5]", "value": -4.98, "unit": "min"}, {"measurement": "Average Duration of Weekly RP Attacks (All Attacks) Change from Baseline, Median", "setting": "[5]", "value": -4.98, "unit": "min"}, {"measurement": "Average Duration of Weekly RP Attacks (All Attacks) Percent Change from Baseline, Mean", "setting": "[5]", "value": "−45.55", "unit": "%"}, {"measurement": "Average Duration of Weekly RP Attacks (All Attacks) Percent Change from Baseline, Median", "setting": "[5]", "value": "−45.55", "unit": "%"}, {"measurement": "Average Duration of Weekly RP Attacks (All Attacks), Mean", "setting": "[5]", "value": 5.95, "unit": "min"}, {"measurement": "Average Duration of Weekly RP Attacks (All Attacks), Median", "setting": "[5]", "value": 5.95, "unit": "min"}, {"measurement": "Average Duration of Weekly RP Attacks (All Attacks) Change from Baseline, Mean", "setting": "ITT Part A", "value": 91.80, "unit": "min"}, {"measurement": "Average Duration of Weekly RP Attacks (All Attacks) Change from Baseline, Median", "setting": "ITT Part A", "value": 91.80, "unit": "min"}, {"measurement": "Average Duration of Weekly RP Attacks (All Attacks) Percent Change from Baseline, Mean", "setting": "ITT Part A", "value": "−7.81", "unit": "%"}, {"measurement": "Average Duration of Weekly RP Attacks (All Attacks) Percent Change from Baseline, Median", "setting": "ITT Part A", "value": "−7.81", "unit": "%"}, {"measurement": "Average Duration of Weekly RP Attacks (All Attacks), Mean", "setting": "ITT Part A", "value": 412.26, "unit": "min"}, {"measurement": "Average Duration of Weekly RP Attacks (All Attacks), Median", "setting": "ITT Part A", "value": 412.26, "unit": "min"}, {"measurement": "Average Duration of Weekly RP Attacks (All Attacks) Change from Baseline, Mean", "setting": "[6]", "value": 91.80, "unit": "min"}, {"measurement": "Average Duration of Weekly RP Attacks (All Attacks) Change from Baseline, Median", "setting": "[6]", "value": 91.80, "unit": "min"}, {"measurement": "Average Duration of Weekly RP Attacks (All Attacks) Percent Change from Baseline, Mean", "setting": "[6]", "value": "−7.81", "unit": "%"}, {"measurement": "Average Duration of Weekly RP Attacks (All Attacks) Percent Change from Baseline, Median", "setting": "[6]", "value": "−7.81", "unit": "%"}, {"measurement": "Average Duration of Weekly RP Attacks (All Attacks), Mean", "setting": "[6]", "value": 412.26, "unit": "min"}, {"measurement": "Average Duration of Weekly RP Attacks (All Attacks), Median", "setting": "[6]", "value": 412.26, "unit": "min"}]}
